Laboratory results taken from patent US8658692B2, “Method of preparation an inclusion-complex comprising hydrophobic physiological activation material including with cyclodextrin and its use” (Macrocare Tech., Ltd., priority 2007, dated 2014).

What was measured:
human fibroblasts [1] = test: Collagen synthesis / collagen proliferation performance (3H-proline incorporation, RCB); type: cell-based; details: for collagen proliferation, result in words (Table 2, FIG. 4): concentrations 10^−6 to 10^−4
Protocol: In order to determine degree of collagen synthesis, human fibroblasts were cultured in a 24-well microtiter plate. The same sample as used for cell proliferation was diluted in a rate of 1/10 in a culture medium and the diluted sample was added to the cultured fibroblasts. The samples used herein were vitamin C, genistein, cyclodextrin, and the inclusion-complexes prepared in Examples 1 and 2.
At 3 days after culture, 0.5 ml of 10% FBS containing DMEM medium was added to each well, followed by adding 10 μCi of L[2,3,4,5-3H]-proline thereto. After 24 hours, the medium and the cells were collected from the well and fed into a 5% trichloroacetic acid (TCA) solution to rinse the product. The rinsed product was plated in two test tubes. 1 unit/μl of Type I collagenase was added to one of the test tubes and cultured at 37° C. for 90 minutes, while the other test tube was stored at 4° C.
After that, adding 0.05 ml of 50% TCA to both the test tubes and leaving the same at 4° C. for 20 minutes, each of the test tubes was subjected to centrifugation at 12,000 rpm for 10 minutes. The resultant supernatant and precipitate were detected using a liquid scintillation counter (LSC) to measure decay per minute (dpm) values. The measured dpm values were used to calculate relative collagen biosynthesis (RCB) values according to the following equation 1: RCB=collagen dpm value/{[([…])×5.4]+collagen dpm value}×100 Equation 1

human fibroblasts [2] = test: Fibroblast proliferation performance (MTT); type: cell-based; details: 4 days culture
Protocol: In order to evaluate cell proliferation performance of the inclusion-complex according to the present invention, fibroblast proliferation performance was determined.
More particularly, human fibroblasts were cultured in Dulbecco s Modified Eagle's medium (DMEM) containing 2.5% fetal bovine serum (FBS) and the cultured cells were plated in a 96-well microtiter plate at 5,000 cells/well.
Each of the inclusion-complex produced in Example 1 (an inclusion-complex of β-cyclodextrin/geniste with a genistein concentration of 5%), the inclusion-complex produced in Example 2 (an inclusion-complex of hydroxypropyl β-cyclodextrin/genistein with a genistein concentration of 5%) was used as a test sample. On the other hand, genistein, retinol and tocopherol, hydroxypropyl β-cyclodextrin and β-cyclodextrin, respectively, were used as controls. Each of the samples was regulated to have a final concentration of 1 mg/ml and added to the fibroblasts, followed by additional culturing of the fibroblasts for 4 days.
After completing the culture, 50 μl of 0.2% MTT (3-[4,5-dimethylthiazol-2-yl]-2,5-diphenyltetrazolium bromide) solution was added to each well, and then, cultured at 37° C. for 4 hours. The obtained formazan was dissolved in dimethyl sulfoxide (DMSO). The formazan solution was subjected to determination of absorption at 570 nm using a microplate reader.

O=C1O[C@H]([C@@H](O)CO)C(O)=C1O [Vitamin C]
Collagen proliferation rate (human fibroblasts [1]; concentration 10^−4): 98% | Collagen proliferation rate (human fibroblasts [1]; concentration 10^−5): 105% | Collagen proliferation rate (human fibroblasts [1]; concentration 10^−6): 106% | collagen proliferation, result in words (Table 2, FIG. 4) (human fibroblasts [1]): decreased as its concentration increased

CC1=C(/C=C/C(C)=C/C=C/C(C)=C/CO)C(C)(C)CCC1 [retinol]
cell viability dependent on concentration (FIG. 2) (human fibroblasts [2]): increased somewhat in proportion to concentration

O=c1c(-c2ccc(O)cc2)coc2cc(O)cc(O)c12 [Genistein]
Collagen proliferation rate (human fibroblasts [1]; concentration 10^−4): 115% | Collagen proliferation rate (human fibroblasts [1]; concentration 10^−5): 112% | Collagen proliferation rate (human fibroblasts [1]; concentration 10^−6): 105% | collagen proliferation, result in words (Table 2, FIG. 4) (human fibroblasts [1]): more excellent effects with increased concentration | cell viability dependent on concentration (FIG. 2) (human fibroblasts [2]): increased somewhat in proportion to concentration

OC[C@H]1O[C@@H]2O[C@H]3[C@H](O)[C@@H](O)[C@@H](O[C@H]4[C@H](O)[C@@H](O)[C@@H](O[C@H]5[C@H](O)[C@@H](O)[C@@H](O[C@H]6[C@H](O)[C@@H](O)[C@@H](O[C@H]7[C@H](O)[C@@H](O)[C@@H](O[C@H]8[C@H](O)[C@@H](O)[C@@H](O[C@H]1[C@H](O)[C@H]2O)O[C@@H]8CO)O[C@@H]7CO)O[C@@H]6CO)O[C@@H]5CO)O[C@@H]4CO)O[C@@H]3CO [Cyclodextrin, β-cyclodextrin]
Collagen proliferation rate (human fibroblasts [1]; concentration 10^−4): 102% | Collagen proliferation rate (human fibroblasts [1]; concentration 10^−5): 101% | Collagen proliferation rate (human fibroblasts [1]; concentration 10^−6): 102% | collagen proliferation, result in words (Table 2, FIG. 4) (human fibroblasts [1]): not greatly improved

tocopherol
cell viability dependent on concentration (FIG. 2) (human fibroblasts [2]): increased somewhat in proportion to concentration

hydroxypropyl β-cyclodextrin
Collagen proliferation rate (human fibroblasts [1]; concentration 10^−4): 104% | Collagen proliferation rate (human fibroblasts [1]; concentration 10^−5): 104% | Collagen proliferation rate (human fibroblasts [1]; concentration 10^−6): 101% | collagen proliferation, result in words (Table 2, FIG. 4) (human fibroblasts [1]): not greatly improved
